# Measured values published in US20250154144A1 (CHILDREN'S HOSPITAL MEDICAL CENTER, priority 2021, published 2025).
# Residue numbers refer to the chain shown, from its start. Read-outs that look alike come from different tables or passages of the source.
# How the values were obtained:
# FLT3 ITD, D835V = target: T1, FLT3 ITD, D835V (Homo sapiens, UniProt P36888, D835V, form not given); assay: DiscoverX KINOMEscan competition binding, FLT3 ITD, D835V; conditions: read-out: FLT3 ITD, D835V Kd
# T1 sequence (P36888 1-993 D835V): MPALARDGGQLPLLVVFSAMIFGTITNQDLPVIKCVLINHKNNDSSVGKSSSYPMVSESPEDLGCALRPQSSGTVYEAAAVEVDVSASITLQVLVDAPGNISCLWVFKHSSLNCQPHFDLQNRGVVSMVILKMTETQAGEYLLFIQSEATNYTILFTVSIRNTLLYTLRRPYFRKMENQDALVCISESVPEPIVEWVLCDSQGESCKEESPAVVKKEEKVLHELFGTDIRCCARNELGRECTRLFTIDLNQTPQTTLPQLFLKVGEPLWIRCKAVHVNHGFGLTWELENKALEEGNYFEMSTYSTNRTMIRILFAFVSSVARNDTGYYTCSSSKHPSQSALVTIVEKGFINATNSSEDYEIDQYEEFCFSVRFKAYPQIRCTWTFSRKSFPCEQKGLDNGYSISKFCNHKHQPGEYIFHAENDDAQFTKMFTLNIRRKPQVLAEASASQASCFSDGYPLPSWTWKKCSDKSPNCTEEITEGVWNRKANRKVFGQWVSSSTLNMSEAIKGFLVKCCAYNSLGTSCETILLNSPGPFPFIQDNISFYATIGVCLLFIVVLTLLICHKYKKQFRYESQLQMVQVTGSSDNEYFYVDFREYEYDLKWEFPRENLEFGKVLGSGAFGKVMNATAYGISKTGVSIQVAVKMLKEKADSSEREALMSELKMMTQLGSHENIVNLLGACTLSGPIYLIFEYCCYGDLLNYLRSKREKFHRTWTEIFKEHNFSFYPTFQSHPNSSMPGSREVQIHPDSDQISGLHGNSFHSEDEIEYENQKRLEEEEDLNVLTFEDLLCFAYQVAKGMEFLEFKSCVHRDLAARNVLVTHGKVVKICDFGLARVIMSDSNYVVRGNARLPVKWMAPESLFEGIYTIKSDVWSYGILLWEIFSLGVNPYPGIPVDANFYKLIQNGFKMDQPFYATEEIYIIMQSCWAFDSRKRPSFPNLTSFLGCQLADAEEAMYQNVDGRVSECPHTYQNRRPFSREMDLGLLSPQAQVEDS
# FLT3 Autoinh. = target: T2, FLT3 Autoinh. (Homo sapiens, UniProt P36888); assay: DiscoverX KINOMEscan competition binding, FLT3 Autoinh.
# T2 construct: purchased DiscoverX (KINOMEscan)
# T2 sequence (P36888 564-993 limits assumed): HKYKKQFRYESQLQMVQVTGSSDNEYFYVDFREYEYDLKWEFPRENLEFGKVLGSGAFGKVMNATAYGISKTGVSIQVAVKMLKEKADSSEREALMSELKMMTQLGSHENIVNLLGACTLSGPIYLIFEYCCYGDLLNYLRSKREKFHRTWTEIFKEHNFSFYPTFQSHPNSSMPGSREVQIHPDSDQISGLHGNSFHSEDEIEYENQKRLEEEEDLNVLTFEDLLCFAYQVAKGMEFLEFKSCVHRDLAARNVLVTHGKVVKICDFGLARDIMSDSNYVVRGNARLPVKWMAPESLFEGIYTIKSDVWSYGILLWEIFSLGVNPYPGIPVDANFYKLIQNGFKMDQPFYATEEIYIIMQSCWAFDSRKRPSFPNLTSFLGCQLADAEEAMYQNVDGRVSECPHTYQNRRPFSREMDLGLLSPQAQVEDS
# FLT3 = target: T3, FLT3 (Homo sapiens, UniProt P36888); assay: RBC HotSpot Kinase Assay, FLT3
# T3 sequence (P36888 610-943 limits assumed): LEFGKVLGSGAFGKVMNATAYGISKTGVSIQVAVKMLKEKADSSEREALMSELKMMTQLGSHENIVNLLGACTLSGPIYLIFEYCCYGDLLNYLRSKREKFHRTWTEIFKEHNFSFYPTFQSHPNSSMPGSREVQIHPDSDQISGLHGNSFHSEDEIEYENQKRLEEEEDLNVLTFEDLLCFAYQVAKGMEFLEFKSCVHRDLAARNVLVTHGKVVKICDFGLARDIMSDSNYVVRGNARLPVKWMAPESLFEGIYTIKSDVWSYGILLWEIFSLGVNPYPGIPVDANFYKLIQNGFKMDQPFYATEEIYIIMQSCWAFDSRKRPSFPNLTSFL
# MOLM14 D835Y cells = assay: cells; type: cell-based; conditions: Homo sapiens, MOLM-14, 48 h, 48 hours, Cell Titer Glo; read-out: MOLM14 D835Y IC50
# FLT3 ITD = target: T4, FLT3 ITD (Homo sapiens, UniProt P36888); assay: DiscoverX KINOMEscan competition binding, FLT3 ITD; conditions: read-out: FLT3 ITD Kd
# T4 sequence (P36888 1-993): T1 sequence (P36888 1-993 D835V) with V835D
Structure (SMILES),"Kd (FLT3 ITD, D835V) [nM]",Kd (FLT3 Autoinh.) [nM],IC50 (FLT3; read-out: FLT3 IC50) [nM],IC50 (MOLM14 D835Y cells) [nM],Kd (FLT3 ITD) [nM],IC50 (FLT3; FLT3 IC50) [nM]
"CC(O)(c1cn2c(-c3ccnc(N[C@H]4CNCC[C@@H]4F)n3)cnc2cn1)C(F)(F)F (single isomer, unassigned) [Compound 72]",0.08,25,< 0.5,55,0.62,–
"F[C@H]1CCNC[C@@H]1Nc1cncc(-c2cnc3cc(OC4CC4)ccn23)n1 [Compound 12, 6-(7-cyclopropoxyimidazo[1,2-a]pyridin-3-yl)-N-((3S,4S)-4-fluoropiperidin-3-yl)pyrazin-2-amine]",0.035,–,–,34,0.87,< 0.5
"COc1cc2ncc(-c3ccnc(N[C@@H]4CCCNC4)n3)n2cc1C(C)(C)O [Compound 44, (R)-2-(7-methoxy-3-(2-(piperidin-3-ylamino)pyrimidin-4-yl)imidazo[1,2-a]pyridin-6-yl)propan-2-ol]",0.009,2.3,–,11,0.42,< 0.5
"COc1cc2ncc(-c3ccnc(N[C@@H]4CCCNC4)n3)n2nc1C1CC1 [Compound 50, (R)-4-(6-cyclopropyl-7-methoxyimidazo[1,2-b]pyridazin-3-yl)-N-(piperidin-3-yl)pyrimidin-2-amine]",–,–,–,17,–,< 0.5
"COc1cc2ncc(-c3ccnc(N[C@H]4CNCC[C@@H]4F)n3)n2nc1C1CC1 [Compound 51, 4-(6-cyclopropyl-7-methoxyimidazo[1,2-b]pyridazin-3-yl)-N-((3S,4S)-4-fluoropiperidin-3-yl)pyrimidin-2-amine]",0.07,40,–,6,2,< 0.5

# Other lines, results leading:
"Kd (FLT3 ITD, D835V) [nM]",Kd (FLT3 Autoinh.) [nM],IC50 (FLT3; read-out: FLT3 IC50) [nM],IC50 (MOLM14 D835Y cells) [nM],Kd (FLT3 ITD) [nM],IC50 (FLT3; FLT3 IC50) [nM],Structure (SMILES)
0.058,33,–,–,0.67,< 0.5,"COc1cc2ncc(-c3cncc(N[C@H]4CNC[C@@H]4F)n3)n2nc1C1CC1 [Compound 22, 6-(6-cyclopropyl-7-methoxyimidazo[1,2-b]pyridazin-3-yl)-N-((3S,4S)-4-fluoropyrrolidin-3-yl)pyrazin-2-amine]"
0.045,25,–,–,0.97,< 0.5,"COc1cc2ncc(-c3cncc(N[C@H]4CNCC[C@@H]4F)n3)n2nc1C1CC1 [Compound 24, 6-(6-cyclopropyl-7-methoxyimidazo[1,2-b]pyridazin-3-yl)-N-((3S,4S)-4-fluoropiperidin-3-yl)pyrazin-2-amine]"
0.04,16,–,24,0.59,< 0.5,"COc1cc2ncc(-c3ccnc(N[C@H]4CNC[C@@H]4F)n3)n2nc1C1CC1 [Compound 49, 4-(6-cyclopropyl-7-methoxyimidazo[1,2-b]pyridazin-3-yl)-N-((3S,4S)-4-fluoropyrrolidin-3-yl)pyrimidin-2-amine]"
